Experimental data taken from patent publication US20240124460A1, “METHODS AND COMPOSITIONS FOR TARGETED PROTEIN DEGRADATION” (Ranok Therapeutics (Hangzhou) Co. Ltd., priority 2020, published 2024).
pEC50: −log10 of the molar value. Where two headings read alike, the source gives them in different places.

Legend:
[1] = tested on: MV-4-11 human acute myeloid leukemia; assay: MV-4-11 CCK-8 proliferation assay; assay type: cell-based; conditions: MV-4-11 cells, 72 hr
Experimental: (§1) The following cancer cell lines were employed: A549 human lung carcinoma (ATCC, #CCL-185); BT-474 human breast carcinoma (ATCC, #HTB-20); MDA-MB-231 human breast adenocarcinoma (ATCC, #CRM−HTB-26); MDA-MB-468 human breast adenocarcinoma (ATCC, #HTB-132); MV-4-11 human acute myeloid leukemia (ATCC, #CRL-9591); and U-87 MG human glioblastoma (ATCC, #HTB-14). Cell lines were cultured essentially according to ATCC recommendations.
(§2) 3-fold serial dilutions of each test compound were prepared ranging from 20 μM to 1.02 nM.
(§3) % Inhibition=100−(D−B)/(S−B)*100%. • S: Absorbance of cells treated with DMSO • D: Absorbance of compound-treated cells • B: Absorbance of medium with DMSO without cells

[2] = tested on: U-87 MG human glioblastoma; assay: U87 MG CCK-8 proliferation assay; assay type: cell-based; conditions: U-87 MG cells, read-out: U87MG CCK-8
Experimental: as §1, §2, §3

| Structure (SMILES) | pEC50 ([1]; Homo sapiens, MV4-11) | pEC50 ([2]; Homo sapiens, U-87 MG, 72 h) | pEC50 ([2]; 72 hr) | pEC50 [1] |
| --- | --- | --- | --- | --- |
| CCOc1cc(N2CCC(C(=O)NCCOCCOc3ccc(-n4c(O)nnc4-c4cc(CC)c(O)cc4O)cc3)CC2)ccc1Nc1ncc2c(n1)N(C)c1ccccc1C(=O)N2C [Compound 014, 1-(4-((5,11-dimethyl-6-oxo-6,11-dihydro-5H-benzo[e]pyrimido[5,4-b][1,4]diazepin-2-yl)amino)-3-ethoxyphenyl)-N-(2-(2-(4-(3-(5-ethyl-2,4-dihydroxyphenyl)-5-hydroxy-4H-1,2,4-triazol-4-yl)phenoxy)ethoxy)ethyl)piperidine-4-carboxamide] | 6.00 to 7.00 | 6.00 to 7.00 | – | – |
| CCOc1cc(N2CCC(C(=O)N3CCC(N4CCN(Cc5ccc(-n6c(O)nnc6-c6cc(C(C)C)c(O)cc6O)cc5F)CC4)CC3)CC2)ccc1Nc1ncc2c(n1)N(C)c1ccccc1C(=O)N2C [Compound 033, 2-((4-(4-(4-(4-(4-(3-(2,4-dihydroxy-5-isopropylphenyl)-5-hydroxy-4H-1,2,4-triazol-4-yl)-2-fluorobenzyl)piperazin-1-yl)piperidine-1-carbonyl)piperidin-1-yl)-2-ethoxyphenyl)amino)-5,11-dimethyl-5,11-dihydro-6H-benzo[e]pyrimido[5,4-b][1,4]diazepin-6-one] | – | 6.00 to 7.00 | – | – |
| CCCc1cc(-c2nnc(O)n2-c2ccc(CN3CCN(C(=O)C4CCN(c5ccc(Nc6ncc7c(n6)N(C)c6ccccc6C(=O)N7C)c(OCC)c5)CC4)CC3)cc2)c(O)cc1O [Compound 050, 2-((4-(4-(4-(4-(3-(2,4-dihydroxy-5-propylphenyl)-5-hydroxy-4H-1,2,4-triazol-4-yl)benzyl)piperazine-1-carbonyl)piperidin-1-yl)-2-ethoxyphenyl)amino)-5,11-dimethyl-5,11-dihydro-6H-benzo[e]pyrimido[5,4-b][1,4]diazepin-6-one] | > 7.00 | 6.00 to 7.00 | – | – |
| CCOc1cc(N2CCC(C(=O)NCCOCCOCCOc3ccc(Nc4cc(-n5nc(C(F)(F)F)c6c5CC(C)(C)CC6=O)ccc4C(N)=O)cc3)CC2)ccc1Nc1ncc2c(n1)N(C)c1ccccc1C(=O)N2C [Compound 131, N-(2-(2-(2-(4-((2-carbamoyl-5-(6,6-dimethyl-4-oxo-3-(trifluoromethyl)-4,5,6,7-tetrahydro-1H-indazol-1-yl)phenyl)amino)phenoxy)ethoxy)ethoxy)ethyl)-1-(4-((5,11-dimethyl-6-oxo-6,11-dihydro-5H-benzo[e]pyrimido[5,4-b][1,4]diazepin-2-yl)amino)-3-ethoxyphenyl)piperidine-4-carboxamide] | 6.00 to 7.00 | < 6.00 | – | – |
| CCOc1cc(N2CCC(C(=O)N3CCC(Oc4ccc(-c5ccc(NC(=O)c6ccc(OC)c(-c7cccc(OC)c7)c6)cc5)cc4)CC3)CC2)ccc1Nc1ncc2c(n1)N(C)c1ccccc1C(=O)N2C [Compound 143, N-(4′-((1-(1-(4-((5,11-dimethyl-6-oxo-6,11-dihydro-5H-benzo[e]pyrimido[5,4-b][1,4]diazepin-2-yl)amino)-3-ethoxyphenyl)piperidine-4-carbonyl)piperidin-4-yl)oxy)-[1,1′-biphenyl]-4-yl)-3′,6-dimethoxy-[1,1′-biphenyl]-3-carboxamide] | < 6.00 | < 6.00 | – | – |
| CCOc1cc(N2CCC(C(=O)N3CCC(Oc4ccc(-c5ccc(NC(=O)c6ccc(OC)c(-c7cccc(OC)c7)c6)cc5)cc4)CC3)CC2)ccc1Nc1ncc2c(n1)N(S(C)(=O)=O)c1ccccc1C(=O)N2C [Compound 144, N-(4′-((1-(1-(3-ethoxy-4-((5-methyl-11-(methylsulfonyl)-6-oxo-6,11-dihydro-5H-benzo[e]pyrimido[5,4-b][1,4]diazepin-2-yl)amino)phenyl)piperidine-4-carbonyl)piperidin-4-yl)oxy)-[1,1′-biphenyl]-4-yl)-3′,6-dimethoxy-[1,1′-biphenyl]-3-carboxamide] | < 6.00 | < 6.00 | – | – |
| CCOc1cc(N2CCC(C(=O)N3CCC(COc4ccc(-c5ccc(NC(=O)c6ccc(OC)c(-c7cccc(OC)c7)c6)cc5)cc4)CC3)CC2)ccc1Nc1ncc2c(n1)N(C)c1ccccc1C(=O)N2C [Compound 145, N-(4′-((1-(1-(4-((5,11-dimethyl-6-oxo-6,11-dihydro-5H-benzo[e]pyrimido[5,4-b][1,4]diazepin-2-yl)amino)-3-ethoxyphenyl)piperidine-4-carbonyl)piperidin-4-yl)methoxy)-[1,1′-biphenyl]-4-yl)-3′,6-dimethoxy-[1,1′-biphenyl]-3-carboxamide] | < 6.00 | < 6.00 | – | – |
| CCOc1cc(N2CCC(C(=O)N3CCC(COc4ccc(-c5ccc(NC(=O)c6ccc(OC)c(-c7cccc(OC)c7)c6)cc5)cc4)CC3)CC2)ccc1Nc1ncc2c(n1)N(S(C)(=O)=O)c1ccccc1C(=O)N2C [Compound 146, N-(4′-((1-(1-(3-ethoxy-4-((5-methyl-11-(methylsulfonyl)-6-oxo-6,11-dihydro-5H-benzo[e]pyrimido[5,4-b][1,4]diazepin-2-yl)amino)phenyl)piperidine-4-carbonyl)piperidin-4-yl)methoxy)-[1,1′-biphenyl]-4-yl)-3′,6-dimethoxy-[1,1′-biphenyl]-3-carboxamide] | < 6.00 | < 6.00 | – | – |
| CCOc1cc(N2CCC(C(=O)NCCCOc3ccc(-c4ccc(NC(=O)c5ccc(OC)c(-c6cccc(OC)c6)c5)cc4)cc3)CC2)ccc1Nc1ncc2c(n1)N(C)c1ccccc1C(=O)N2C [Compound 147, N-(3-((4′-(3′,6-dimethoxy-[1,1′-biphenyl]-3-carboxamido)-[1,1′-biphenyl]-4-yl)oxy)propyl)-1-(4-((5,11-dimethyl-6-oxo-6,11-dihydro-5H-benzo[e]pyrimido[5,4-b][1,4]diazepin-2-yl)amino)-3-ethoxyphenyl)piperidine-4-carboxamide] | < 6.00 | < 6.00 | – | – |
| CCOc1cc(N2CCC(C(=O)NCCCOc3ccc(-c4ccc(NC(=O)c5ccc(OC)c(-c6cccc(OC)c6)c5)cc4)cc3)CC2)ccc1Nc1ncc2c(n1)N(S(C)(=O)=O)c1ccccc1C(=O)N2C [Compound 148, N-(3-((4′-(3′,6-dimethoxy-[1,1′-biphenyl]-3-carboxamido)-[1,1′-biphenyl]-4-yl)oxy)propyl)-1-(3-ethoxy-4-((5-methyl-11-(methylsulfonyl)-6-oxo-6,11-dihydro-5H-benzo[e]pyrimido[5,4-b][1,4]diazepin-2-yl)amino)phenyl)piperidine-4-carboxamide] | < 6.00 | < 6.00 | – | – |
| CCOc1cc(N2CCC(C(=O)N3CCC(COc4ccc(-c5ccc(NC(=O)c6ccc(OC)c(-c7cccc(OC)c7)c6)cc5)c(OCCCN(C)C)c4)CC3)CC2)ccc1Nc1ncc2c(n1)N(C)c1ccccc1C(=O)N2C [Compound 151, N-(4′-((1-(1-(4-((5,11-dimethyl-6-oxo-6,11-dihydro-5H-benzo[e]pyrimido[5,4-b][1,4]diazepin-2-yl)amino)-3-ethoxyphenyl)piperidine-4-carbonyl)piperidin-4-yl)methoxy)-2′-(3-(dimethylamino)propoxy)-[1,1′-biphenyl]-4-yl)-3′,6-dimethoxy-[1,1′-biphenyl]-3-carboxamide] | – | < 6.00 | – | – |
| CCOc1cc(N2CCC(C(=O)NCCCOc3ccc(-c4ccc(NC(=O)c5ccc(OC)c(-c6cccc(OC)c6)c5)cc4)c(OCCCN(C)C)c3)CC2)ccc1Nc1ncc2c(n1)N(C)c1ccccc1C(=O)N2C [Compound 152, N-(3-((4′-(3′,6-dimethoxy-[1,1′-biphenyl]-3-carboxamido)-2-(3-(dimethylamino)propoxy)-[1,1′-biphenyl]-4-yl)oxy)propyl)-1-(4-((5,11-dimethyl-6-oxo-6,11-dihydro-5H-benzo[e]pyrimido[5,4-b][1,4]diazepin-2-yl)amino)-3-ethoxyphenyl)piperidine-4-carboxamide] | < 6.00 | < 6.00 | – | – |
| CCOc1cc(N2CCC(C(=O)N3CCC(CN4CCN(Cc5ccc(-n6c(C(=O)N[C@H](C)C(F)(F)F)nnc6-c6cc(CC)c(O)cc6O)cc5)CC4)CC3)CC2)ccc1Nc1ncc2c(n1)N(S(C)(=O)=O)c1ccccc1C(=O)N2C [Compound 176, (R)-4-(4-((4-((1-(1-(3-ethoxy-4-((5-methyl-11-(methylsulfonyl)-6-oxo-6,11-dihydro-5H-benzo[e]pyrimido[5,4-b][1,4]diazepin-2-yl)amino)phenyl)piperidine-4-carbonyl)piperidin-4-yl)methyl)piperazin-1-yl)methyl)phenyl)-5-(5-ethyl-2,4-dihydroxyphenyl)-N-(1,1,1-trifluoropropan-2-yl)-4H-1,2,4-triazole-3-carboxamide] | – | – | 6.00 to 7.00 | – |
| CCOc1cc(N2CCC(C(=O)N3CCC(CN4CCN(Cc5ccc(-n6c(C(=O)N[C@@H](C)C(F)(F)F)nnc6-c6cc(CC)c(O)cc6O)cc5)CC4)CC3)CC2)ccc1Nc1ncc2c(n1)N(S(C)(=O)=O)c1ccccc1C(=O)N2C [Compound 177, (S)-4-(4-((4-((1-(1-(3-ethoxy-4-((5-methyl-11-(methylsulfonyl)-6-oxo-6,11-dihydro-5H-benzo[e]pyrimido[5,4-b][1,4]diazepin-2-yl)amino)phenyl)piperidine-4-carbonyl)piperidin-4-yl)methyl)piperazin-1-yl)methyl)phenyl)-5-(5-ethyl-2,4-dihydroxyphenyl)-N-(1,1,1-trifluoropropan-2-yl)-4H-1,2,4-triazole-3-carboxamide] | – | – | – | > 7.00 |
